Test results published in PMC2974656, “Selective killing of human immunodeficiency virus infected cells by non-nucleoside reverse transcriptase inhibitor-induced activation of HIV protease” (Retrovirology, 2010).

Assays:
HIV-1IIIB = assay: Direct antiviral activity: MT4-LTR-EGFP cells infected with HIV-1IIIB, EGFP fluorescence; type: cell-based; details: MT4-LTR-EGFP cells, HIV-1IIIB MOI 0.01, 3 days; mean ± SD of three or more measurements; read-out: Inhibition of HIV replication in vitro EC50
Method: After 3 days of incubation, infected cells were quantified by determination of total EGFP fluorescence per well based on microscopy and subsequent image analysis. Threshold values were determined from the average pixel value plus 6 standard deviations from the uninfected control wells, and the median threshold from all control wells on a plate was defined as baseline GFP expression. Intensity values for the sample wells were then determined by subtracting the background threshold from each pixel value obtained from the image of the respective well and calculating the sum of net pixel intensities. Percent inhibition was calculated as 100 * (1 - (Sample - CC)/(VC - CC)).

RT heterodimer (p66/p51) = biological target: T1, RT heterodimer (p66/p51) (Human immunodeficiency virus type 1 group M subtype B, UniProt P04585); assay: cell-based; type: cell-based, HIV-1
T1 construct: the bait protein (p66) was fused to the C-terminus of a chimeric receptor; expressed in transfected cells; host or cells: mammalian cells
Description: RT heterodimer formation was monitored using a mammalian two hybrid system described previously. In brief, the bait protein (p66) was fused to the C-terminus of a chimeric receptor consisting of the extracellular part of the erythropoietin receptor and the intracellular part of the leptin receptor incapable of STAT activation. The prey protein (p51) was coupled to a part of the cytoplasmic tail of the gp130 chain carrying several STAT3 recruitment domains. Interaction of bait and prey protein leads to functional complementation of STAT3 activity, which results in Epo dependent induction of a STAT3-responsive luciferase reporter gene. Enhancement of this interaction by the addition of compounds can thus be measured by an increase of luciferase expression.

[1] = tested on: HXB2D-EGFP infected CD4 positive cells isolated from PBMC; assay: Killing of HIV-1 infected CD4 positive primary T-cells, flow cytometry; type: cell-based, human; details: 1 μM NNRTI + 1 μM AZT, 3 days
Method: To validate our results obtained for the persistently infected cell line in a more relevant cell system we performed additional infection experiments using human peripheral blood mononuclear cells (PBMC). […]. PBMC isolated from healthy blood donors were activated and infected with a replication competent HIV-1 derivative which carries a gfp gene in the nef locus. The co-receptor antagonist AMD-3100 was added at day 2 post infection to prevent further viral spread. This was done to distinguish the proposed killing of infected cells from the inhibitory effect of NNRTIs and PIs on virus replication. […]. […] Similar results were obtained upon infection of CD4-positive primary T-cells with an EGFP-expressing virus (Figure 4B).
Figure 4 NNRTI induced selective killing of HIV-1 infected primary human cells. (A) PBMC prepared from buffy coats of healthy blood donors were infected with HIV-1AGFP. At day 2 post infection, 100 ng/ml AMD-3100 was added to all samples to prevent further infection. […] After further incubation for 5 days, cells were harvested and analyzed for the proportion of infected GFP expressing cells by flow cytometry. […] P-values were calculated using a two-tailed unpaired t-test (GraphPad Prism). Values were normalized to the respective solvent control. (B) CD4 positive cells isolated from PBMC were infected with HXB2D-EGFP. […] After further incubation for 3 days, cells were harvested and analyzed for the proportion of infected cells by flow cytometry. […] Asterisks: non-infected controls.
Peripheral blood mononuclear cells (PBMC) were purified from buffy coats of HIV-negative blood donors, grown in supplemented RPMI 1640 and stimulated by the addition of 10 ng/ml IL-2 (Biomol) and 2 μg/ml PHA (Sigma). PBMC pooled from two donors each were used for infection. […] For infection of PBMC, the HIV-1 derivatives HIV-1-AGFP [49] carrying the gfp gene fused to the codon for amino acid 16 of Nef in pNL4-3, or HXB2D-EGFP [60], which carries an egfp gene in the place of the viral nef open reading frame, were used as indicated. […]

MT4-LTR-EGFP-IIIB cells = type: cell-based; details: 1 μM, 6 days, trypan blue
Description: (§1) In MT4-LTR-EGFP-IIIB cells, HIV expression could additionally be detected through long terminal repeat (LTR) driven expression of the gfp marker gene. As a control we used uninfected MT-4 cells or MT4-CMV-EGFP cells, constitutively expressing EGFP from a CMV promoter, respectively.
(§2) Cell lysates were harvested and analyzed by immunoblot using antiserum raised against HIV-1 CA. Positions of Gag and Gag-Pol processing products are marked at the right, molecular mass standards are indicated to the left (in kDa). […] Live cells were counted after trypan blue staining. Data represent mean values and standard deviations from three parallel cultures.

[2] = tested on: MT4-LTR-EGFP parental cells; details: 1 μM, 6 days, trypan blue
Description: as §1, §2

NS(=O)(=O)c1ccc(NC(=O)CSc2nnc(Br)n2-c2ccc(C3CC3)c3ccccc23)c(Cl)c1 [VRX-480773]
EC50 (HIV-1IIIB): 1.6 ± 0.81 nM | EC50 (RT heterodimer (p66/p51); concentration enhancing luciferase signal by 50% over control, read-out: Enhancement of RT-Dimerization EC50): 4 nM | Promotion of RT dimerization, in words (RT heterodimer (p66/p51); summary of Table 1): low nM range | Cytotoxicity on infected CD4-positive primary T-cells [1]: PR dependent cytotoxicity | Live cell numbers, HIV infected MT4-LTR-EGFP-IIIB cells (MT4-LTR-EGFP-IIIB cells): significant decrease | Number of uninfected control cells [2]: remained constant
